Here are results for 35 compounds from patent publication US12384772B2, “Inhibitors” (VIVORYON THERAPEUTICS N.V., priority 2017, dated 2025).

Where two headings read alike, the source gives them in different places.

For orientation: Ki means a dissociation constant, usually derived from enzyme kinetics or from competition with a known ligand.

In this test the target is Glutaminyl cyclase (QC) (Homo sapiens (Human), UniProt Q16769). Put plainly: Glutaminyl cyclase assay, determination of IC50 values and calculation of Ki values (H-Gln-AMC substrate, pGAP auxiliary enzyme; pH 8.0 or pH 6.0). The test is classed as biochemical. As to the method: 10 mM compound stock solutions were prepared in DMSO. For IC50 determination compound stocks were serially diluted (1:3) in DMSO.
Glutaminyl cyclase (QC), sequence (Q16769 29-361): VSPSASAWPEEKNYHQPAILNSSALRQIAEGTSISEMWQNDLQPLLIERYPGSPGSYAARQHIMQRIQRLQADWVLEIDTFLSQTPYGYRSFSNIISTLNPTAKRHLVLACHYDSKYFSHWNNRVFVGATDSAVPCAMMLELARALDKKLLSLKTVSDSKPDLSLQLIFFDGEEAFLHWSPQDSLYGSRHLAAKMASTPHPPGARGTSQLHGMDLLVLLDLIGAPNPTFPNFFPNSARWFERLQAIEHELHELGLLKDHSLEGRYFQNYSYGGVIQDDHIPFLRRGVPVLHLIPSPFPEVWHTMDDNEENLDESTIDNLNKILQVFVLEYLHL
All measurements were performed with an EnSpire Perkin Elmer multimode reader using glutaminyl-7-amino-4-methylcoumarin (H-Gin-AMC) as substrate and recombinant pyroglutamyl aminopeptidase (pGAP) as auxiliary enzyme. Reactions were carried out at ambient temperature in black 96-well half area microplates. Each sample consisted of 1 μl test compound solution or solvent (DMSO) and 49 μl QC appropriately diluted in assay buffer (50 mM Tris/HCl, pH 8.0 or 50 mM MES buffer, pH=6.0). After a 10 min preincubation at ambient temperature the enzyme reaction was started by adding 50 μl of Gln-AMC-substrate/pGAP mixture in assay buffer. Final substrate concentrations were 50 and 200 μM for measurement at pH 8.0 or 6.0, respectively. Release of flourogenic AMC were recorded at excitation/emission wavelengths of 380/460 nm. Initial velocity of the enzyme reaction was calculated by linear regression of the first 10 data points using the Enspire Manager software. Final evaluation and calculation of IC50s were performed using GraphPad Prism software.
Ki-values were calculated according to the following formula: Ki=IC50/(1+[S]/Km), where: […]

[1] abbreviates: pH 6, read-out: hQC Ki [μM] pH6.
[2] abbreviates: pH 8, read-out: hQC Ki [μM] pH8.

Turning to `COc1ccc(-c2ccccc2Nc2ccc(-c3nnc(N)s3)cc2)cc1` [C4, 5-(4-{[2-(4-methoxyphenyl)phenyl]amino}phenyl)-1,3,4-thiadiazol-2-amine], the inhibitory constant (Ki) is, setting by setting: under setting [1], 1.87 µM; under setting [2], 1.48 µM.

For the compound `COc1ccc(-c2cccnc2Nc2ccc(-c3nnc(N)s3)cc2)cc1` [C5, N-[4-(5-amino-1,3,4-thiadiazol-2-yl)phenyl]-3-(4-methoxyphenyl)pyridin-2-amine], the Ki was 4.17 µM under setting [1] and 4.7 µM under setting [2].

Turning to `COc1ccc(-c2cnccc2Nc2ccc(-c3nnc(N)s3)cc2)cc1` [C6, N-[4-(5-amino-1,3,4-thiadiazol-2-yl)phenyl]-3-(4-methoxyphenyl)pyridin-4-amine], the inhibitory constant (Ki) is 7.16 µM under setting [1] and 4.22 µM under setting [2].

`COc1ccc(-c2cnccc2Nc2ccc(-c3nnc(N)s3)cc2)cc1OC` [C7, N-[4-(5-amino-1,3,4-thiadiazol-2-yl)phenyl]-3-(3,4-dimethoxyphenyl)pyridin-4-amine]: the Ki by setting is: under setting [1], 54.7 µM; under setting [2], 7.46 µM.

As to `Nc1nnc(-c2ccc(Nc3nccnc3-c3ccc(F)cc3)cc2)s1` [C9, N-[4-(5-amino-1,3,4-thiadiazol-2-yl)phenyl]-3-(4-fluorophenyl)pyrazin-2-amine], the Ki runs as follows: under setting [1], 1.66 µM; under setting [2], 6.89 µM.

On to `Nc1nnc(-c2ccc(Nc3ccccc3-c3ccc(Oc4ccccc4)cc3)cc2)s1` [C10, 5-(4-{[2-(4-phenoxyphenyl)phenyl]amino}phenyl)-1,3,4-thiadiazol-2-amine], for which the Ki runs as follows: under setting [1], 4.37 µM; under setting [2], 2.23 µM.

As to `CCCOc1ccc(-c2ccccc2Nc2ccc(-c3nnc(N)s3)cc2)cc1` [C11, 5-(4-([2-(4-propoxyphenyl)phenyl]amino)phenyl)-1,3,4-thiadiazol-2-amine], the Ki was 2.15 µM under setting [1] and 2.36 µM under setting [2].

In the case of `CC(C)Oc1ccc(-c2ccccc2Nc2ccc(-c3nnc(N)s3)cc2)cc1` [C12, 5-[4-({2-[4-{propan-2-yloxy)phenyl]phenyl}amino)phenyl]-1,3,4-thiadiazol-2-amine], the inhibition constant Ki reads like this: under setting [1], 1.51 µM; under setting [2], 3.27 µM.

`Nc1nnc(CCCNc2ccccc2-c2ccc(F)cc2)s1` [Comp 93, 5-[3-({4′-fluoro-[1,1′-biphenyl]-2-yl}amino)propyl]-1,3,4-thiadiazol-2-amine]: the inhibitory constant (Ki) was 2.6 µM under setting [1] and 1100 µM under setting [2].

As to `Nc1nnc(SCCNc2ccccc2-c2ccc(F)cc2)s1` [Comp 94, 5-{[2-({4′-fluoro-[1,1′-biphenyl]-2-yl}amino)ethyl]sulfanyl}-1,3,4-thiadiazol-2-amine], the Ki is, setting by setting: under setting [1], 2.97 µM; under setting [2], 11.5 µM.

Regarding `COc1ccc(-c2ccccc2NCCSc2nnc(N)s2)cc1OC` [Comp 178, 5-{[2-({3′,4′-dimethoxy-[1,1′-biphenyl]-2-yl}amino)ethyl]sulfanyl}-1,3,4-thiadiazol-2-amine], the Ki under setting [1] was 1.1 µM and the Ki under setting [2] is 0.97 µM.

On to `Cn1cnnc1CCCNc1ccccc1-c1ccc(F)cc1` [Comp 328, 4′-fluoro-N-[3-(4-methyl-4H-1,2,4-triazol-3-yl)propyl]-[1,1′-biphenyl]-2-amine], for which the inhibitory constant (Ki) was 1.97 µM under setting [1] and 2.86 µM under setting [2].

Regarding `COc1ccc(-c2ccccc2NCCCc2nncn2C)cc1OC` [Comp 384, 3′,4′-dimethoxy-N-[3-(4-methyl-4H-1,2,4-triazol-3-yl)propyl]-[1,1′-biphenyl]-2-amine], the Ki was 0.13 µM under setting [1] and 0.26 µM under setting [2].

On to `Nc1nnc(-c2ccc(Nc3ncccc3-c3ccc(F)cc3)cc2)s1` [Comp 521, N-[4-(5-amino-1,3,4-thiadiazol-2-yl)phenyl]-3-(4-fluorophenyl)pyridin-2-amine], for which the inhibition constant Ki under setting [1] is 2.69 µM and the inhibition constant Ki under setting [2] was 4.27 µM.

For `COc1ccc(-c2ccccc2Nc2ccc(-c3nnc(N)s3)cc2)cc1OC` [Comp 561, 5-(4-{[2-(3,4-dimethoxyphenyl)phenyl]amino}phenyl)-1,3,4-thiadiazol-2-amine], the inhibition constant (Ki) runs as follows: under setting [1], 0.42 µM; under setting [2], 1.09 µM.

In the case of `Cn1cnnc1-c1ccc(Nc2ccccc2-c2ccc(F)cc2)cc1` [Comp 826, 4′-fluoro-N-[4-(4-methyl-4H-1,2,4-triazol-3-yl)phenyl]-[1,1‘-biphenyl]-2-amine], the inhibitory constant (Ki) under setting [1] was 1.44 µM and the Ki under setting [2] is 1.74 µM.

For `Cn1cnnc1-c1ccc(Nc2cccnc2-c2ccc(F)cc2)cc1` [Comp 852, 2-(4-fluorophenyl)-N-[4-(4-methyl-4H-1,2,4-triazol-3-yl)phenyl]pyridin-3-amine], the Ki by setting is: under setting [1], 2.69 µM; under setting [2], 5.05 µM.

Turning to `COc1ccc(-c2ccccc2Nc2ccc(-c3nncn3C)cc2)cc1OC` [Comp 854, 3′,4′-dimethoxy-N-[4-(4-methyl-4H-1,2,4-triazol-3-yl)phenyl]-[1,1′-biphenyl]-2-amine], the inhibition constant (Ki) by setting is: under setting [1], 0.44 µM; under setting [2], 1.48 µM.

For the compound `Nc1nnc(C2CCN(c3ccccc3-c3ccc(F)cc3)CC2)s1` [Comp 1075, 5-(1-{4′-fluoro-[1,1′-biphenyl]-2-yl}piperidin-4-yl)-1,3,4-thiadiazol-2-amine], the Ki by setting is: under setting [1], 0.09 µM; under setting [2], 0.248 µM.

As to `Fc1ccc(-c2ccccc2NCc2ccc3[nH]cnc3c2)cc1` [Comp 1226, N-[(1H-1,3-benzodiazol-5-yl)methyl]-4′-fluoro-[1,1′-biphenyl]-2-amine], the Ki is 5.91 µM under setting [1] and 5.29 µM under setting [2].

Take `Fc1ccc(-c2cccnc2NCc2ccc3[nH]cnc3c2)cc1` [Comp 1234, N-(1H-1,3-benzodiazol-5-ylmethyl)-3-(4-fluorophenyl)pyridin-2-amine]: the inhibition constant (Ki) is 58.8 µM under setting [1] and 12.3 µM under setting [2].

Regarding `Fc1ccc(-c2ncccc2NCc2ccc3[nH]cnc3c2)cc1` [Comp 1252, N-(1H-1,3-benzodiazol-5-ylmethyl)-2-(4-fluorophenyl)pyridin-3-amine], the Ki is 145 µM under setting [1] and 22 µM under setting [2].

Take `COc1ccc(-c2ccccc2NCc2ccc3[nH]cnc3c2)cc1OC` [Comp 1254, N-[(1H-1,3-benzodiazol-5-yl)methyl]-3′,4′-dimethoxy-[1,1′-biphenyl]-2-amine]: the Ki is 0.12 µM under setting [1] and 0.27 µM under setting [2].

For the compound `COc1ccc(-c2cccnc2NCc2ccc3[nH]cnc3c2)cc1OC` [Comp 1262, N-(1H-1,3-benzodiazol-5-ylmethyl)-3-(3,4-dimethoxyphenyl)pyridin-2-amine], the inhibition constant Ki under setting [1] was 0.1 µM and the Ki under setting [2] was 0.23 µM.

Turning to `COc1ccc(NS(=O)(=O)NCCSc2nncn2C)cc1OC` [Comp 1332, [(3,4-dimethoxyphenyl)sulfamoyl]({2-[(4-methyl-4H-1,2,4-triazol-3-yl)sulfanyl]ethyl})amine], the Ki is 13.6 µM under setting [1] and 11.8 µM under setting [2].

For the compound `COc1ccc(-c2ccccc2Nc2ccc(-c3nncn3C)cc2)cc1` [D3, N-[2-(4-methoxyphenyl)phenyl]-4-(4-methyl-4H-1,2,4-triazol-3-yl)aniline], the inhibition constant (Ki) runs as follows: under setting [1], 0.99 µM; under setting [2], 1.69 µM.

On to `COc1ccc(-c2ncccc2Nc2ccc(-c3nncn3C)cc2)cc1` [D4, 2-(4-methoxyphenyl)-N-[4(4-methyl-4H-1,2,4-triazol-3-yl)phenyl]pyridin-3-amine], for which the inhibition constant (Ki) runs as follows: under setting [1], 1.7 µM; under setting [2], 3.37 µM.

Regarding `Cn1cnnc1-c1ccc(Nc2ccccc2-c2ccc(Oc3ccccc3)cc2)cc1` [D6, 4-(4-methyl-4H-1,2,4-triazol-3-yl)-N-[2-(4-phenoxyphenyl)phenyl]aniline], the Ki is 1.33 µM under setting [1] and 1.81 µM under setting [2].

With `COc1ccc(-c2cnccc2Nc2ccc(-c3nncn3C)cc2)cc1OC` [D7, 3-(3,4-dimethoxyphenyl)-N-[4-(4-methyl-4H-1,2,4-triazol-3-yl)phenyl]pyridin-4-amine], the inhibition constant Ki under setting [2] is 10.1 µM.

`Nc1nnc(CCCNS(=O)(=O)c2ccc(F)cc2)s1` [E2, N-[3-(5-amino-1,3,4-thiadiazol-2-yl)propyl]-4-fluorobenzene-1-sulfonamide]: the Ki is 18.1 µM under setting [1] and 9.38 µM under setting [2].

Consider `Nc1nnc(SCCNS(=O)(=O)c2ccc(F)cc2)s1` [E3, N-{2-[(5-amino-1,3,4-thiadiazol-2-yl)sulfanyl]ethyl}-4-fluorobenzene-1-sulfonamide], for which the inhibitory constant (Ki) is 19.9 µM under setting [1] and 26.5 µM under setting [2].

In the case of `CS(=O)(=NCCCc1nnc(N)s1)c1ccc(F)cc1` (stereo not drawn) [F2, 5-(3-{[(4-fluorophenyl)(methyl)oxo-λ^6-sulfanylidene]amino}propyl)-1,3,4-thiadiazol-2-amine], the inhibition constant (Ki) under setting [1] is 11.4 µM and the inhibition constant (Ki) under setting [2] was 11.7 µM.

Take `Cn1cnnc1SCCNS(=O)(=O)c1ccc(F)cc1` [G2, 4-fluoro-N-{2-[(4-methyl-4H-1,2,4-triazol-3-yl)sulfanyl]ethyl}benzene-1-sulfonamide]: the Ki reads like this: under setting [1], 8.84 µM; under setting [2], 11.5 µM.

`Nc1ncc(-c2ccc(NS(=O)(=O)c3ccc(F)cc3)cc2)s1` [I1, N-[4-(2-amino-1,3-thiazol-5-yl)phenyl]-4-fluorobenzene-1-sulfonamide]: the Ki under setting [1] was 2.93 µM and the inhibition constant (Ki) under setting [2] is 2.64 µM.

As to `Nc1ncc(C2CCN(S(=O)(=O)c3ccc(F)cc3)CC2)s1` [M1, 5-[1-(4-fluorobenzenesulfonyl)piperidin-4-yl]-1,3-thiazol-2-amine], the inhibition constant (Ki) is, setting by setting: under setting [1], 1.32 µM; under setting [2], 1.7 µM.
